Calls of active or inactive are those of the source. The rule behind the calls is not given here.
Key:
A549 [1] = test: Cytotoxicity against human A549 cells assessed as reduction in cell viability after 72 hrs by MTT assay; assay type: functional, cell-based; conditions: A549, 72 h
HCT-116 = test: Cytotoxicity against human HCT116 cells assessed as reduction in cell viability after 72 hrs by MTT assay; assay type: functional, cell-based; conditions: HCT-116, 72 h
PC-3 = test: Cytotoxicity against human PC3 cells assessed as reduction in cell viability after 72 hrs by MTT assay; assay type: functional, cell-based; conditions: PC-3, 72 h
[2] = target: Serine/threonine-protein kinase PLK1 (Homo sapiens) (UniProt P53350); test: Inhibition of recombinant human N-terminal His6-tagged PLK1 expressed in baculovirus infected Sf21 insect cells at 1 uM using FAM-labelled peptide as substrate preincubated for 10 mins followed by substrate addition measured after 1 hr relative to control
Serine/threonine-protein kinase PLK1 (Homo sapiens), sequence (P53350 whole entry): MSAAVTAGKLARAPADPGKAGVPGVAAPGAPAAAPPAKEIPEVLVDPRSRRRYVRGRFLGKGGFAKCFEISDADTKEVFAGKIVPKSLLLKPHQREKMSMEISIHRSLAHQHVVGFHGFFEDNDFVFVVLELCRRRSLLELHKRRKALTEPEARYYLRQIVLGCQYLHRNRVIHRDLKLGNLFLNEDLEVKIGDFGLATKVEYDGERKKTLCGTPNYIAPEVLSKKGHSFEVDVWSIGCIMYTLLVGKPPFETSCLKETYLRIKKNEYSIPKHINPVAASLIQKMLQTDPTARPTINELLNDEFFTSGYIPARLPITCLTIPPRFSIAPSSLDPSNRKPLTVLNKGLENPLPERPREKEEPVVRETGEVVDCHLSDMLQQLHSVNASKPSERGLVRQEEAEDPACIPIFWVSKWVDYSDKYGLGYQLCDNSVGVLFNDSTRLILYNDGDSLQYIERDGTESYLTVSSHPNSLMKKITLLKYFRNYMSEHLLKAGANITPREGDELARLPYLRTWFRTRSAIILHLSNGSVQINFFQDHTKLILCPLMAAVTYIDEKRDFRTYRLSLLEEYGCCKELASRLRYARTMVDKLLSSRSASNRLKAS

A549 [3] = test: Induction of apoptosis in human A549 cells assessed as late apoptotic cells at 1 uM after 24 hrs by acridine orange/ethidium bromide staining-based fluorescence microscopic method; assay type: functional, cell-based
A549 [4] = test: Induction of apoptosis in human A549 cells assessed as late apoptotic cells at 5 uM after 24 hrs by acridine orange/ethidium bromide staining-based fluorescence microscopic method; assay type: functional, cell-based
A549 [5] = test: Antimigratory activity in human A549 cells assessed as inhibition of wound healing up to 36 hrs by fluorescence microscopic method; assay type: functional, cell-based
A549 [6] = test: Antimigratory activity in human A549 cells assessed as wound healing at 0.2 uM after 12 hrs by fluorescence microscopic method (reference value: 26.2%); assay type: functional
A549 [7] = test: Antimigratory activity in human A549 cells assessed as wound healing at 1 uM after 12 hrs by fluorescence microscopic method (reference value: 26.2%); assay type: functional
A549 [8] = test: Antimigratory activity in human A549 cells assessed as wound healing at 0.2 uM after 24 hrs by fluorescence microscopic method (reference value: 58.5%); assay type: functional
A549 [9] = test: Antimigratory activity in human A549 cells assessed as wound healing at 1 uM after 24 hrs by fluorescence microscopic method (reference value: 58.5%); assay type: functional
A549 [10] = test: Antimigratory activity in human A549 cells assessed as wound healing at 0.2 uM after 36 hrs by fluorescence microscopic method (reference value: 100%); assay type: functional
A549 [11] = test: Antimigratory activity in human A549 cells assessed as wound healing at 1 uM after 36 hrs by fluorescence microscopic method (reference value: 100%); assay type: functional
A549 [12] = test: Cell cycle arrest in human A549 cells assessed as accumulation at G1 phase at 0.2 uM after 24 hrs by propidium iodide staining based flow cytometric analysis (reference value: 63.34%); assay type: functional
A549 [13] = test: Cell cycle arrest in human A549 cells assessed as accumulation at G1 phase at 1 uM after 24 hrs by propidium iodide staining based flow cytometric analysis (reference value: 63.34%); assay type: functional
A549 [14] = test: Cell cycle arrest in human A549 cells assessed as accumulation at G1 phase at 5 uM after 24 hrs by propidium iodide staining based flow cytometric analysis (reference value: 63.34%); assay type: functional
A549 [15] = test: Cell cycle arrest in human A549 cells assessed as accumulation at S phase at 0.2 uM after 24 hrs by propidium iodide staining based flow cytometric analysis (reference value: 29.93%); assay type: functional
A549 [16] = test: Cell cycle arrest in human A549 cells assessed as accumulation at S phase at 1 uM after 24 hrs by propidium iodide staining based flow cytometric analysis (reference value: 29.93%); assay type: functional
A549 [17] = test: Cell cycle arrest in human A549 cells assessed as accumulation at S phase at 5 uM after 24 hrs by propidium iodide staining based flow cytometric analysis (reference value: 29.93%); assay type: functional
A549 [18] = test: Cell cycle arrest in human A549 cells assessed as accumulation at G2 phase at 0.2 uM after 24 hrs by propidium iodide staining based flow cytometric analysis (reference value: 6.73%); assay type: functional
A549 [19] = test: Cell cycle arrest in human A549 cells assessed as accumulation at G2 phase at 1 uM after 24 hrs by propidium iodide staining based flow cytometric analysis (reference value: 6.73%); assay type: functional
A549 [20] = test: Cell cycle arrest in human A549 cells assessed as accumulation at G2 phase at 5 uM after 24 hrs by propidium iodide staining based flow cytometric analysis (reference value: 6.73%); assay type: functional
MCF7 = test: cells; conditions: Homo sapiens, MCF7, 72 h
Description: Cytotoxicity against human MCF7 cells assessed as reduction in cell viability after 72 hrs by MTT assay

MDA-MB-231 = test: cells; conditions: Homo sapiens, MDA-MB-231, 72 h
Description: Cytotoxicity against human MDA-MB-231 cells assessed as reduction in cell viability after 72 hrs by MTT assay

## Cc1nnc2c(=O)n(C3CCCC3)c3nc(Nc4ccc(N5CC(C)NC(C)C5)cc4)ncc3n12 (centres undefined)
A549 [1]
  IC50: 160 nM
HCT-116
  IC50: 300 nM
PC-3
  IC50: 510 nM
[2]
  inhibition: 86.4%
A549 [3]
  Activity: Active
A549 [4]
  Activity: Active
A549 [5]
  inhibition: Dose-dependent effect
A549 [6]
  Activity: 25.1%
A549 [7]
  Activity: 24.4%
A549 [8]
  Activity: 33.7%
A549 [9]
  Activity: 27.8%
A549 [10]
  Activity: 51.4%
A549 [11]
  Activity: 43.1%
A549 [12]
  Activity: 74.99%
A549 [13]
  Activity: 79.82%
A549 [14]
  Activity: 82.32%
A549 [15]
  Activity: 20.46%
A549 [16]
  Activity: 14.54%
A549 [17]
  Activity: 13.37%
A549 [18]
  Activity: 4.55%
A549 [19]
  Activity: 5.64%
A549 [20]
  Activity: 4.32%
MCF7
  IC50: 300 nM
MDA-MB-231
  IC50: 700 nM
